Data set [1] can be described thus: refractive index (Na D-line) (dimensionless). The conditions noted are these: 293.15 K; 101.33 kPa; Liquid; Standard Abbe refractometry.
The conditions of data set [2]: Crystal; DTA.
Data set [3] in a line: Molar enthalpy of transition or fusion. The conditions noted are these: Crystal; DSC.

Numbers after ± are expanded uncertainties.

In the case of `NCCO` [2-aminoethan-1-ol], in data set [1], the refractive index – broadly, the speed of light in vacuum divided by its phase velocity in the sample – came to 1.4542 ± 0.0004. The same measure, in the same setting: next, `O=CN1CCOCC1` [N-formylmorpholine]: 1.4849 ± 0.0004; `CN1CCCC1=O` [N-methylpyrrolidone]: 1.469 ± 0.0004. For the molecule `CC#N` [acetonitrile], in data set [1], the refractive index is 1.3439 ± 0.0004.

Turning to `C=C(C)[C@@H]1CC[C@]2(CO)CC[C@]3(C)[C@H](CC[C@@H]4[C@@]5(C)CC[C@H](O)C(C)(C)[C@@H]5CC[C@]43C)[C@@H]12` [betulin], the Normal melting temperature in data set [2] is 255.0 ± 0.4 °C. In data set [3], the “Molar enthalpy of transition or fusion” value was determined as 13.2 ± 0.359 kcal/mol. Turning to `CCC(C)O` (stereo not given) [butan-2-ol], the refractive index in data set [1] turned out to be 1.3983 ± 0.0004. Same read-out and setting: in the case of `CN(C)C=O` [dimethylformamide] it was 1.4304 ± 0.0004. Same read-out and setting: in the case of `CCCCCCCCCCCC` [dodecane] it was 1.4218 ± 0.0004; in that of `CCCCCCCCCCCCCCCC` [hexadecane], 1.4346 ± 0.0004. As to `CCCCCCCCCO` [nonan-1-ol], the refractive index in data set [1] worked out at 1.4334 ± 0.0004. On the same count and under the same terms, in the case of `CCCCCCCCO` [octan-1-ol] it was 1.4291 ± 0.0004. On the same count and under the same terms, next, `CCCCCCCC` [octane]: 1.3978 ± 0.0004; `CCCCCO` [pentan-1-ol]: 1.4098 ± 0.0004; `O` [water]: 1.3329 ± 0.0004.
